# From patent US10292991B2, “Small molecule therapeutic compounds that reduce the incidence of intracerebral hemorrhage and brain microhemorrhages” (St. Michaels Hospital, priority 2016, dated 2019)
# Structures can show the parent of a compound that is named as a salt. Where two headings read alike, the source gives them in different places.
# Columns and labels:
# [1] = system: zebrafish larvae; test: Toxicity assay in zebrafish larvae (heart beat, blood flow, cardiac edema); type: in vivo, zebrafish (Danio rerio)
# Method: The embryos were collected and distributed into a 96-well plate in 0.5% DMSO, similar to efficacy assays. […] Heart beat and blood flow were ranked from 3 (normal heart beat or blood flow) to 0 (no heart beat or blood flow). Cardiac edema was ranked from 0 (normal heart without edema) to −3 (severe cardiac edema). […] The ratio of TC50/EC50 was calculated in each case.
# Heart beat and blood flow were ranked from 3 (normal heart beat or blood flow) to 0 (no heart beat or blood flow). Cardiac edema was ranked from 0 (normal heart without edema) to −3 (severe cardiac edema). […] Data is expressed as mean±SEM from 3 experiments.
# [2] = system: bbh mutant zebrafish (mutation in βPix), spontaneous ICH; test: bbh (bubblehead) mutant genetic model of brain hemorrhage; type: in vivo, zebrafish (Danio rerio); conditions: for EC50: read-out: EC50 to rescue brain hemorrhage, bbh Mutant Model
# Text: A specific zebrafish line with a gene mutation called bubblehead (bbh) was used. This line has spontaneous ICH. Bubblehead phenotype is caused by a mutation in βPix. Adult homozygous zebrafish were viable and fertile. […] More than 85% of zebrafish larvae display an ICH phenotype.
# [3] = system: brain hemorrhage induced by 1 μM atorvastatin in zebrafish; test: Atorvastatin-induced brain hemorrhage (ICH) model in zebrafish, rescue by drugs; conditions: for Efficacy on atorvastatin Hemorrhage: ATV model induced by 1 μmol/L atorvastatin, inhibition of hemorrhage; for Result in the ATV zebrafish model: derivatives acquired from Sequoia Research Products
# Method: Zebrafish were set up the night before the experiment day. In the morning of the experimental day, we put breeders together for mating and fertilization. 6 hours post-fertilization (hpf), statins was added into a 96-well plate holding 100 μl water with 7 to 8 fish eggs in each well, which was optimized through a serial pilot experiments. Statins were dissolved in DMSO and diluted with 0.5% of DMSO water into a working solution. 100 μl water containing 0.5% of DMSO was the medium for all wells in the final assessment.
# For screening NIH compound libraries, 5 μM of each of the drugs from the library was added at 24 hpf into wells containing fish eggs treated with 1 μM ATV since 6 hpf. Hemorrhage positive control wells were treated with ATV but not treated with any drugs. Negative controls were not treated with any chemicals (fish with 0.5% of DMSO water). Geranylgeranyl pyrophosphate (GGPP, 4 mg/L) was used as positive rescue control.
# Brain hemorrhage was assessed 72 hpf (66 hours after addition of statins) using stereomicroscopy by two observers. Percentage of brain hemorrhage was used as final readout. Compounds showing more than 70% of rescue of the brain hemorrhages in the initial test were re-tested to generate a final list of hits from the library.
# All subsequent EC50 assays of positive compounds were performed with protocols established and optimized during the screening.
# [4] = system: β-Pix MO-induced hemorrhage in zebrafish; test: βPix morpholino-induced hemorrhage in zebrafish, rescue by drugs; type: in vivo, zebrafish (Danio rerio); conditions: for Efficacy on β-Pix MO Hemorrhage: inhibition of β-Pix MO-induced hemorrhage
# Method: (§1) Morpholino oligonucleotides (MOs) were custom-synthesized by Gene Tools (Carvalis, Oreg.); their sequences are shown in Table 1.
# (§2) Danieau buffer (58 mM NaCl, 0.7 mM KCl, 0.4 mM MgSO4, 0.6 mM Ca(NO3)2, 5.0 mM HEPES, pH 7.6) was used to dilute the MO solutions to 0.2 mM final concentration. Individual wells were placed on a 1.0% agarose plate, in which the embryos were positioned. Afterwards, the MO solution was injected through the cell yolk into embryos of 1 to 4 cell-stage. The injected quantities varied from 0.5 to 15 ng.
# (§3) bbhm292 zebrafish mutant has a hypomorphic mutation in βPix, resulting in ICH/BMH and hydrocephalus. The MO is βPixexon6-MO which blocks splicing of exon 6 and results in premature protein termination. […] Higher doses of βPixexon6-MO (up to 8 ng) result in a lack of blood circulation, and therefore no ICH/BMH was detected. Injection of 8 ng results in complete missplicing of βPix and therefore a null phenotype, whereas lower doses retain some normally spliced βPix. The βPixexon6-MO sequence is 5′-[…]-3′ [SEQ ID NO: 1]. 3Pixexon6-MO was injected into the embryos at the 1-2 cell stage, and compounds were added 12 hpf.
# (§4) The first three morpholino pairs were good for the efficacy study. Efficacy assays were performed using Artemether (ARM, Sigma) and artemesunate (ART, GMP). […] Treating these morphants with the drugs rescued the ICH phenotype.
# [5] = system: Cdh5 - exon2 morpholino-induced hemorrhage in zebrafish; test: Cdh5 (VE-cadherin) morpholino-induced hemorrhage in zebrafish, rescue by drugs; type: in vivo, zebrafish (Danio rerio); conditions: result in words, no EC50
# Method: as §2
# Panels A & B: Stable EC junctions are maintained by a Cdc42-dependent and VE-cadherin-mediated cell-cell adhesion. VE cadherins are found on the surfaces of EC cell-cell junctions. VE-cadherins are associated with β- and α-catenins at their cytoplasmic domains, which connect them to the actin-based cytoskeleton (blue circles). Cdc42 belongs to the Rho-family of small guanosine triphosphatases (GTPases), which are the main regulators of VE-cadherin-based cell-cell adhesion. The functions of hmgcrb, βPix, and pak2a in regulating junctional stability in zebrafish are shown. HNGCR mediated GGPP biosynthesis regulates Cdc42 prenylation. βPix is a GEF that increases CDC42 affinity for GTP. Pak2 is an effector of Cdc42, which regulates actin filament organization.
# Suppression of VE-cadherin induces hemorrhage.
# [6] = system: Pak2a - exon8 morpholino-induced hemorrhage in zebrafish; test: Pak2a morpholino-induced hemorrhage in zebrafish, rescue by drugs; type: in vivo, zebrafish (Danio rerio); conditions: result in words
# Method: as §2
# Another MO was designed to block the splice-donor sites after exon 8 in pak2a. Pak2a is the gene mutated in the rhdmi149 zebrafish mutant that develops ICH/BMH.
# Efficacy assays were performed using Artemether (ARM, Sigma) and artemesunate (ART, GMP).
# [7] = system: Hmgcrb - splice morpholino-induced hemorrhage in zebrafish; test: Hmgcrb morpholino-induced hemorrhage in zebrafish, rescue by drugs; type: in vivo, zebrafish (Danio rerio)
# Method: as §2, §4
# [8] = system: zebrafish larvae; test: Morpholino injection to induce hemorrhage in zebrafish larvae; type: in vivo; conditions: for Hemorrhage: at optimum injected amount, 3 dpf larvae, n = 150-250 per condition
# Method: as §1, §2, §3
# Another MO was designed to block the splice-donor sites after exon 8 in pak2a. Pak2a is the gene mutated in the rhdmi149 zebrafish mutant that develops ICH/BMH. The pak2a-MO sequence is 5′-[…]-3′ (SEQ ID NO: 2). Eight pg of pak2a-MO was injected per embryo, resulting in […] of embryos with ICH/BMH with low mortality (FIGS. 12 and 14).
# Next, optimum amount of each morpholino was determined. The goal was to induce an acceptable percentage of hemorrhage (ideally between 40-80%), without having toxicity from morpholino injection.
# [9] = system: CCM3 (Ccm3) mRNA; test: qRT-PCR of CCM3 mRNA in atorvastatin-treated zebrafish larvae; type: in vivo, zebrafish (Danio rerio); conditions: 1 μmol/L atorvastatin alone
# Method: qRT-PCR was used to assess relative expression of selected genes (an average of two biological trial and three technical replicates and each trial is a pool of 60 larvae/treatment), using β-actin as the housekeeping gene control. 3 dpf, Tg(Flk:GFP; Gata:dsRed) zebrafish larvae were used for RNA extraction and cDNA synthesis. Atorvastatin and drug treatment were performed as previously mentioned in drug screening. Total RNA was extracted from these larvae (a pool of 50-60 larvae/treatment) using the RNeasy extraction kit (Qiagen, Mississauga, ON, CAN) and treated with DNase. The concentration of total RNA was determined spectrophotometrically at 260/280 nm using a NanoDrop™ spectrophotometer. First-strand cDNA was synthesized from 1 μg of total RNA using random hexamer primers.
# In each case, forward primer is shown on the top and reverse primer on the bottom.
# PCR was carried out in a 20 μl total volume and included 1×PCR buffer, 1.25 mM MgCl2, 0.25 mM dNTP, 1 U Taq polymerase, 0.5 μmol/L forward, and reverse primers and 1 μl cDNA.
# [10] = system: mice treated with LPS; test: Atorvastatin plus LPS in mice: mortality and large hemorrhages; type: in vivo; conditions: for mortality: n=5
# Text: While the present invention has been described with reference to the specific embodiments thereof it should be understood by those skilled in the art that various changes may be made and equivalents may be substituted without departing from the true spirit and scope of the invention. In addition, many modifications may be made to adopt a particular situation, material, composition of matter, process, process step or steps, to the objective spirit and scope of the present invention. All such modifications are intended to be within the scope of the claims appended hereto.
# [11] = drug from Sequoia Research (UK)
# [12] = drug from Sigma, 3 dpf larvae, drug added 24 hpf
# [13] = Danio rerio, read-out: EC50 (in nmol/L) on atorfvastatin model (μmol/L)
# [14] = Danio rerio, read-out: EC50 to rescue brain hemorrhage, Statin Model
# [15] = n = 15-20 larvae per condition, 1-3 times per compound
compound,measurement,setting,value
C[C@@H]1CC[C@H]2[C@@H](C)C(=O)O[C@@H]3O[C@]4(C)CC[C@@H]1[C@]32OO4 [Artemisinin],TC50 (Blood flow),[1]; [11],5340 nM
same,TC50 (Edema),[1]; [11],6347 nM
same,TC50/EC50 ratio (Blood flow),[1]; [11],(20.4)
same,TC50/EC50 ratio (Edema),[1]; [11],24.2)
same,TC50/EC50 ratio (Heart beat),[1]; [11],4.6e+007)
same,TC50/EC50 ratio (Blood flow),[1]; drug from Sigma,(13)
same,TC50/EC50 ratio (Edema),[1]; drug from Sigma,(419)
same,TC50/EC50 ratio (Heart beat),[1]; drug from Sigma,(104.5)
same,TC50 (Blood flow),[1]; [12],1058 nM
same,TC50 (Edema),[1]; [12],34134 nM
same,TC50 (Heart beat),[1]; [12],8501 nM
same,EC50,[2]; Danio rerio,177 nM
same,Efficacy on atorvastatin Hemorrhage,[3],+++++ (One + sign represents 20% inhibition on 1 μmol/L ATV or β-Pix MO-induced hemorrhage.)
same,EC50,[3]; [13],95 nmol/L
same,EC50,[3]; [14],81.3 nmol/L
same,Result in the ATV zebrafish model,[3],tested positive
same,Efficacy on β-Pix MO Hemorrhage,[4],+++++ (One + sign represents 20% inhibition on 1 μmol/L ATV or β-Pix MO-induced hemorrhage.)
Artesunate,Rescue of hemorrhage induced by Cdh5 - exon2 morpholino,[5],rescue was observed
same,EC50,[2]; [15],140 nM
same,Rescue of hemorrhage / ICH phenotype in bbh mutants,[2]; result in words,rescues the ICH phenotype
same,ICH/BMH after treatment with pak2a-MO,[6],dose-dependently reduced
same,Efficacy on atorvastatin Hemorrhage,[3],+++++ (One + sign represents 20% inhibition on 1 μmol/L ATV or β-Pix MO-induced hemorrhage.)
same,EC50,"[3]; read-out: EC50 (in nmol/L) on atorfvastatin model (μmol/L), Table 3, 1 μmol/L atorvastatin, 3 to 4 experiments",211 nmol/L
same,ICH/BMH after MO-mediated inhibition of hmgcrb,[7]; result in words,prevented
same,ICH in βPixexon6-MO injected embryos,"[4]; 5 μmol/L, compounds added 12 hpf",prevented ICH
same,Efficacy on β-Pix MO Hemorrhage,[4],+++++ (One + sign represents 20% inhibition on 1 μmol/L ATV or β-Pix MO-induced hemorrhage.)
C[C@H]1[C@@H](O)O[C@@H]2O[C@]3(C)CC[C@H]4[C@H](C)CC[C@@H]1[C@@]24OO3 [Dihydroartemisinin],TC50 (Blood flow),[1]; [11],979.5 nM
same,TC50 (Edema),[1]; [11],1021 nM
same,TC50 (Blood flow),[1]; [12],890 nM
same,TC50 (Edema),[1]; [12],748.5 nM
same,EC50,[2]; Danio rerio,107 nM
same,Efficacy on atorvastatin Hemorrhage,[3],+++++ (One + sign represents 20% inhibition on 1 μmol/L ATV or β-Pix MO-induced hemorrhage.)
same,EC50,[3]; [13],67 nmol/L
same,EC50,[3]; [14],80.8 nmol/L
same,Result in the ATV zebrafish model,[3],tested positive
same,Efficacy on β-Pix MO Hemorrhage,[4],+++++ (One + sign represents 20% inhibition on 1 μmol/L ATV or β-Pix MO-induced hemorrhage.)
Cdh5 - exon2: morpholino 5′-TACAAGACCGTCTACCTTTCCAATC-3′ (antisense; all phosphorodiamidate morpholino (PMO)),Cardiac Edema,[8]; at optimum injected amount (1.0 ng),35.0% (Cardiac Edema)
same,Hemorrhage,[8],39.4%
Hmgcrb - splice: morpholino 5′-AACTGCATTCATAAACTCACCCAGT-3′ (all phosphorodiamidate morpholino (PMO)),Hemorrhage,[8],67.9%
GGTasel: morpholino 5′-CACGCGGTGTGTGGACTCACGGTCA-3′ (all phosphorodiamidate morpholino (PMO)),Hemorrhage,[8],11.4% (Faint)
CC(C)[C@]12O[C@H]1[C@@H]1O[C@]13[C@]1(O[C@H]1C[C@@]1(C)C4=C(CC[C@]31C)C(=O)OC4)[C@H]2O [Tripolide],Efficacy on atorvastatin Hemorrhage,[3],++++ (One + sign represents 20% inhibition on 1 μmol/L ATV or β-Pix MO-induced hemorrhage.)
same,Efficacy on β-Pix MO Hemorrhage,[4],No effect
CCOC(=O)C1=C(C)NC(C)=C(C(=O)OCC)C1c1ccccc1/C=C/C(=O)OC(C)(C)C [Lacidipine],Efficacy on atorvastatin Hemorrhage,[3],++++ (One + sign represents 20% inhibition on 1 μmol/L ATV or β-Pix MO-induced hemorrhage.)
C[C@H]1[C@H](OC(=O)CCC(=O)O)O[C@@H]2O[C@@]3(C)CC[C@H]4[C@H](C)CC[C@@H]1[C@@]24OO3 [Artesunate],Rescue of hemorrhage induced by Cdh5 - exon2 morpholino,[5],Rescue effect
same,TC50 (Blood flow),[1]; GMP-Artesunate,794.4 nM
same,TC50 (Edema),[1]; GMP-Artesunate,3196 nM
same,TC50 (Heart beat),[1]; GMP-Artesunate,2525 nM
same,TC50 (Blood flow),[1]; [11],1036 nM
same,TC50 (Edema),[1]; [11],937.8 nM
same,TC50 (Heart beat),[1]; [11],9539 nM
same,TC50 (Blood flow),[1]; [12],741.5 nM
same,TC50 (Edema),[1]; [12],5367 nM
same,TC50 (Heart beat),[1]; [12],8884 nM
same,EC50,[2]; [15],127 nM
same,EC50,"[3]; read-out: EC50 to rescue brain hemorrhage, Statin Model, Table 4, n = 15-20 larvae per condition, three times per compound",182 nmol/L
same,EC50,[7]; Table 6,167 ± 9.3 nM
same,EC50,"[4]; Table 6, read-out: EC50 to rescue hemorrhage induced by βPix - exon6 morpholino",95.6 ± 27.9 nM
Rap1b - exon3: morpholino 5′-AAATGATGCAGAACTTGCCTTTCTG-3′ (all phosphorodiamidate morpholino (PMO)),Hemorrhage,[8],30.8% (Faint)
C#C[C@]1(O)CC[C@H]2[C@@H]3CCc4cc(O)ccc4[C@H]3CC[C@@]21C [Ethynylestradiol],Efficacy on atorvastatin Hemorrhage,[3],+++ (One + sign represents 20% inhibition on 1 μmol/L ATV or β-Pix MO-induced hemorrhage.)
Benidipine,Efficacy on atorvastatin Hemorrhage,[3],++++ (One + sign represents 20% inhibition on 1 μmol/L ATV or β-Pix MO-induced hemorrhage.)
same,Efficacy on β-Pix MO Hemorrhage,[4],++++ (One + sign represents 20% inhibition on 1 μmol/L ATV or β-Pix MO-induced hemorrhage.)
"CC(C)c1c(C(=O)Nc2ccccc2)c(-c2ccccc2)c(-c2ccc(F)cc2)n1CC[C@@H](O)C[C@@H](O)CC(=O)O [Atorvastatin, atorvastatin calcium salt]",CCM3 transcription level (qRT-PCR) after inducing hemorrhage,[9],decrease
same,mortality,"[10]; atorvastatin 50 mg/kg in addition to LPS 5 mg/kg, 24 hours after treatments",100%
same,Number of large hemorrhages caused by LPS,"[10]; mouse, in vivo",significantly increased
same,mortality,"[10]; statin alone, 24 hours",did not cause any mortality
